Reference: patent publication US11123354B2, “Method for the treatment of osteoarthritis” (ABIOGEN PHARMA S.P.A., priority 2016, dated 2021)

How the values were obtained:
[1] = tested on: COMP (Cartilage Oligomeric Matrix Protein); assay: COMP final serum concentration, MIA-induced OA rats, weekly treatment; format: in vivo, Sprague Dawley rats
Description: As an experimental model of OA induction, one involving the intra-articular administration of MIA (monosodium iodoacetate) was used.
The rats were anesthetized by a gaseous mixture of isoflurane and oxygen, and maintained in a supine position. Once the infrapatellar ligament was identified by touch, a single intra-articular injection of monosodium iodoacetate (MIA) was performed in the right knee, after having shaved the skin of the area, while keeping the joint slightly flexed. The amount of MIA injected was equal to 1 mg dissolved in 50 μl of saline solution, having a pH of about 4.5, as measured just before administration. The joint of the left knee was instead injected with 50 μl of saline solution alone, and this represented the internal control.
The treatment involved 4 weekly administrations of sodium chlodronate, followed by one week of follow-up.
The study included 8 treatment groups, each consisting of 10 male Sprague Dawley rats, specifically five treatment groups consisting of OA rats, on which the chlodronate doses of 2, 10, 20, 30, and 40 mg/ml, corresponding to 0.1, 0.5, 1, 1.5, and 2 mg/rat, were tested, and the remaining three groups represented by untreated OA rats, operated but untreated Sham rats, and rats administered only with placebo at pH 4.5.
Considering that the presence of high concentrations of COMP in serum is an indication of the progression of osteoarthritic disease, the measurement of COMP (Cartilage Oligomeric Matrix Protein) final serum concentration is a measure of treatment efficacy.
In fact, COMP seems to play a fundamental role in the formation and structure of articular cartilage, as it has a regulatory function in assembling type II collagen fibers and, together with other matrix proteins, stabilizes the network of collagen fibers. During osteoarthritis, a greater amount of this protein was found in the blood, therefore a higher concentration of COMP in the serum corresponds to a more advanced stage of osteoarthritis degeneration.

[2] = tested on: OA rats (bilateral anterior cruciate ligament surgical resection); assay: Histomorphometric evaluation of the cartilage area, OA rats by anterior cruciate ligament resection, monthly treatment; format: in vivo, Sprague Dawley rats; settings: 4 monthly i.a. doses
Description: In this study, the efficacy of a treatment performed by monthly intra-articular administration of sodium chlodronate on male “Sprague Dawley” rats affected by OA was evaluated. The treatment involved 4 monthly doses of sodium chlodronate, followed by one month of follow-up.
In the experimental model, OA was induced in rats by bilateral anterior cruciate ligament surgical resection in both hind limbs.
A volume of 50 μL of treatment solution, having a pH of about 4.5, as measured just before administration, was injected into the intra-articular cavity of each knee.
The study included 5 treatment groups, each consisting of 10 male rats, specifically two treatment groups consisting of OA rats, on which chlodronate doses of 8 and 12 mg/ml, corresponding to 0.4 and 0.6 mg/rat, were tested, and remaining three groups represented by untreated OA rats, operated but untreated Sham rats, and rats receiving placebo alone.
During the treatment period, the animals were regularly checked in relation to the increase in body mass, food intake and general health conditions. Clinical and hematological analyses were performed at the end of the study. […]
Histomorphometric quantitative measurements of the cartilage area were performed using Image-Pro Plus 4.1 software for windows (Media Cybernetics, Maryland, USA). […]

Sprague Dawley rats = assay: Local tolerability of repeated intra-articular injections; format: in vivo
Description: With the aim to determine also the maximum dosages of chlodronate administrable in a single intra-articular injection, the local tolerability of intra-articular injections of sodium chlodronate, after repeated administration in the right knee of male and female Sprague Dawley rats, was investigated in this study.
Groups consisting of 5 male rats and 5 female rats each were subjected to intra-articular administration of aqueous solutions comprising 4, 14 and 40 mg/ml of sodium chlodronate (corresponding to dosages of 0.2, 0.7, and 2 mg/rat).
Each animal received a total of 12 intra-articular injections of chlodronate or placebo, administered as 3 injections per week (on Monday, Wednesday, and Friday) for 4 consecutive weeks. For the high dose group and the control group, the relative control groups with the same numerosity as the main groups were also provided.
During the treatment period, the animals were regularly checked in relation to the increase in body mass, food intake, and general health conditions.
At the end of the study, hematological analyses, chemical-clinical analyses, urino-analysis, and necropsy were performed.

[3] = 4, 14 and 40 mg/ml, 12 i.a. injections (3 per week, 4 weeks)
[4] = repeated intra-articular administration, rats

## O=P([O-])(O)C(Cl)(Cl)P(=O)([O-])O.[Na+].[Na+] [Sodium Chlodronate, sodium chlodronate]
[1]; 2 mg/mL weekly i.a.
  COMP Value: 5.46 ng/mL
[1]; 10 mg/mL weekly i.a.
  COMP Value: 5.52 ng/mL
[1]; 20 mg/mL weekly i.a.
  COMP Value: 5.24 ng/mL
[1]; 30 mg/mL weekly i.a.
  COMP Value: 4.9 ng/mL
[1]; 40 mg/mL weekly i.a.
  COMP Value: 3.52 ng/mL
[2]; 8 mg/ml (0.4 mg/rat)
  Cartilage Area Average Value ± SEM: 486 ± 157.7
[2]; 12 mg/ml (0.6 mg/rat)
  Cartilage Area Average Value ± SEM: 435 ± 125.9
Sprague Dawley rats; [3]
  hematological analyses with differential leucocyte count and urinary analyses: no alterations due to the treatment
  necropsy examination: No abnormalities
Sprague Dawley rats; 4, 14 and 40 mg/ml, 12 i.a. injections (3 per week, 4 weeks), all animals
  body weight and food consumption: normal
Sprague Dawley rats; 4, 14 and 40 mg/ml, 12 i.a. injections (3 per week, 4 weeks), male and female rats
  mortality, behavioral or clinical changes related to the treatment: neither mortality nor behavioral or clinical changes
Sprague Dawley rats; females, highest dose (40 mg/ml, 2 mg/rat), 12 i.a. injections
  renal effect / electrolyte serum concentration: slight renal suffering with an increase in electrolyte serum concentration
Sprague Dawley rats; males, highest dose (40 mg/ml, 2 mg/rat), 12 i.a. injections
  ALP and ALT values in serum (initial hepatic suffering): significant increase
Sprague Dawley rats; [4]
  Maximum Tolerated Dose (MTD): 40 mg/mL
  NOAEL dose (No Observed Adverse Effect Level): 14 mg/mL
